Source: patent US20130065818A1, “Arylamide Compounds And Compositions And Uses Thereof” (POLYMEDIX, priority 2006, published 2013)
In brackets after ≈: the same amount, converted by molar mass. Where two headings read alike, the source gives them in different places.

Experiments:
Format in all cases: cell-based
CS S. epidermidis (CSSE) = assay: MIC of clinical ocular isolates (Example 1); conditions: Staphylococcus epidermidis; CSSE clinical ocular isolates (n=26)
P. aeruginosa (PA) = assay: MIC of clinical ocular isolates (Example 1); conditions: Pseudomonas aeruginosa; PA clinical ocular isolates (n=26)
[1] = test system: Ciprofloxacin Resistant (CR) S. aureus (CRSA); assay: MIC of clinical ocular isolates (Example 1); conditions: Staphylococcus aureus; CRSA clinical ocular isolates (n=28)
Moraxella Species (MS) = assay: MIC of clinical ocular isolates (Example 1); conditions: MS clinical ocular isolates (n=25)
H. influenzae (HI) = assay: MIC of clinical ocular isolates (Example 1); conditions: Haemophilus influenzae; HI clinical ocular isolates (n=26)
St. viridans group (SV) = assay: MIC of clinical ocular isolates (Example 1); conditions: Streptococcus viridans
[2] = test system: Ciprofloxacin Susceptible (CS) S. aureus (CSSA); assay: MIC of clinical ocular isolates (Example 1); conditions: Staphylococcus aureus; CSSA clinical ocular isolates (n=27)
Serratia marcescens (SM) = assay: MIC of clinical ocular isolates (Example 1); conditions: SM clinical ocular isolates (n=27)
St. pneumoniae (SP) = assay: MIC of clinical ocular isolates (Example 1); conditions: Streptococcus pneumoniae; SP clinical ocular isolates (n=27)
CR S. epidermidis (CRSE) = assay: MIC of clinical ocular isolates (Example 1); conditions: Staphylococcus epidermidis; CRSE clinical ocular isolates (n=26)
Haemophilus influenzae = assay: MIC, 25 ocular isolates, broth microdilution (Example 8); conditions: for MIC / MIC50 / MIC90: Haemophilus influenzae
Method: HTM (Haemophilus Test Medium) in tubes was inoculated with 25 ocular isolates of Haemophilus influenzae plus two controls (Staphylococcus aureus and E. coli) and incubated at 37° C. overnight. Additionally, Mueller-Hinton Broth in tubes was inoculated with two controls (Staphylococcus aureus and E. coli) and incubated at 37° C. overnight on a shaker set at 250 rpm.
On the day of testing, a 640 μg/ml (1280 μg/ml for Serratia marcescens and Pseudomonas aeruginosa) concentration was prepared from a 1% stock solution in 0.01% acetic acid, 0.2% BSA in polypropylene tubes.
Serial doubling dilutions in 0.01% acetic acid, 0.2% BSA in 96 well polypropylene plates, which are used as reservoirs for the inoculation of the test plates, were carried out to obtain serial dilutions of test agents at 10 times the required test concentrations: 640, 320, 160, 80, 40, 20, 10, 5, 2.5, 1.25, and 0.625 μg/ml (1280, 640, 320, 160, 80, 40, 20, 10, 5, 2.5, and 1.25 μg/ml for Serratia marcescens and Pseudomonas aeruginosa).
Ten μl of diluted 10×test agents was added to each well of one row of the 96 well polypropylene plates from column 2 to column 12 (column 1 is a control for bacteria alone, with no peptide). Test agent concentrations in columns 2-12 were as follows: 64, 32, 16, 8, 4, 2, 1, 0.5, 0.25, 0.125, and 0.0625 μg/ml (128, 64, 32, 16, 8, 4, 2, 1, 0.5, 0.25, and 0.125 μg/ml for Serratia marcescens and Pseudomonas aeruginosa). The same peptide was in each of the 8 rows. One plate contained dilutions of one test agent and 8 bacterial isolates.
On the day of testing, the overnight bacterial broth cultures of Haemophilus species was diluted in 5 ml of trypticase soy broth to yield turbidity equal to a 0.5 McFarland standard. The final inoculum for MIC testing for Haemophilus species was achieved by placing 0.1 ml of the turbidity adjusted sample to 5 ml of HTM medium.
Ninety μl of the bacterial suspensions was dispensed in each well from column 1 to column 12. Each bacterial isolate was placed in one row of a 96 well polypropylene plate containing the test agents. The plates were placed on shaker at 15 minutes at room temperature, and then incubated at 37° C. overnight. MICs were determined visually as the lowest concentration of drug that inhibits visible bacterial growth.

[3] = 25 ocular isolates, HTM medium, read-out: Median MIC
[4] = isolate 10 B1378, read-out: MIC
[5] = isolate 11 B1313, read-out: MIC
[6] = isolate 12 B1477, read-out: MIC
[7] = isolate 13 B1286, read-out: MIC
[8] = isolate 14 B1282, read-out: MIC
[9] = isolate 15 B1291, read-out: MIC
[10] = isolate 16 B1280, read-out: MIC
[11] = isolate 17 B1279, read-out: MIC
[12] = isolate 18 B1260, read-out: MIC
[13] = isolate 19 B1238, read-out: MIC
[14] = isolate 20 B1209, read-out: MIC
[15] = isolate 21 B1249, read-out: MIC
[16] = isolate 22 B1248, read-out: MIC
[17] = isolate 23 B1244, read-out: MIC
[18] = isolate 24 B1419, read-out: MIC
[19] = isolate 25 B1222, read-out: MIC
[20] = n=25 isolates, >64 replaced with 128
[21] = n=25 isolates, >64 replaced with 128, read-out: Median MIC

Row | Structure (SMILES) | MIC (Haemophilus influenzae; [3]) [µg/mL] | MIC (Haemophilus influenzae; isolate 1 B1359, read-out: MIC) [µg/mL] | MIC (Haemophilus influenzae; isolate 2 B1346, read-out: MIC) [µg/mL] | MIC (Haemophilus influenzae; isolate 3 B1345, read-out: MIC) [µg/mL] | MIC (Haemophilus influenzae; isolate 4 B1343, read-out: MIC) [µg/mL] | MIC (Haemophilus influenzae; isolate 5 B1338, read-out: MIC) [µg/mL] | MIC (Haemophilus influenzae; isolate 6 B1332, read-out: MIC) [µg/mL] | MIC (Haemophilus influenzae; isolate 7 B1331, read-out: MIC) [µg/mL] | MIC (Haemophilus influenzae; isolate 8 B1330, read-out: MIC) [µg/mL] | MIC (Haemophilus influenzae; isolate 9 B1379, read-out: MIC) [µg/mL] | MIC (Haemophilus influenzae; [4]) [µg/mL] | MIC (Haemophilus influenzae; [5]) [µg/mL] | MIC (Haemophilus influenzae; [6]) [µg/mL] | MIC (Haemophilus influenzae; [7]) [µg/mL] | MIC (Haemophilus influenzae; [8]) [µg/mL] | MIC (Haemophilus influenzae; [9]) [µg/mL] | MIC (Haemophilus influenzae; [10]) [µg/mL] | MIC (Haemophilus influenzae; [11]) [µg/mL] | MIC (Haemophilus influenzae; [12]) [µg/mL] | MIC (Haemophilus influenzae; [13]) [µg/mL] | other results
1 | N=C(N)NCCCCC(=O)Nc1cc(C(F)(F)F)cc(NC(=O)c2cc(C(=O)Nc3cc(C(F)(F)F)cc(NC(=O)CCCCNC(=N)N)c3SCCN)ncn2)c1SCCN [Oligomer 2] | – | – | – | – | – | – | – | – | – | – | – | – | – | – | – | – | – | – | – | – | MIC50 (CS S. epidermidis (CSSE)): 0.03 µg/mL; MIC90 (CS S. epidermidis (CSSE)): 0.03 µg/mL; MIC50 (P. aeruginosa (PA)): 4 µg/mL; MIC90 (P. aeruginosa (PA)): 8 µg/mL; MIC50 [1]: 0.25 µg/mL; MIC90 [1]: 0.25 µg/mL; MIC50 (Moraxella Species (MS)): 0.25 µg/mL; MIC90 (Moraxella Species (MS)): 0.5 µg/mL; MIC50 (H. influenzae (HI)): 8 µg/mL; MIC90 (H. influenzae (HI)): 16 µg/mL; MIC50 (St. viridans group (SV)): 4 µg/mL; MIC90 (St. viridans group (SV)): 32 µg/mL; MIC50 [2]: 0.125 µg/mL; MIC90 [2]: 0.25 µg/mL; MIC50 (Serratia marcescens (SM)): 16 µg/mL; MIC90 (Serratia marcescens (SM)): 32 µg/mL; MIC50 (St. pneumoniae (SP)): 1 µg/mL; MIC90 (St. pneumoniae (SP)): 2 µg/mL; MIC50 (CR S. epidermidis (CRSE)): 0.03 µg/mL; MIC90 (CR S. epidermidis (CRSE)): 0.03 µg/mL
2 | N=C(N)NCCCCC(=O)Nc1cc(C(F)(F)F)cc(NC(=O)c2cc(C(=O)Nc3cc(C(F)(F)F)cc(NC(=O)CCCCNC(=N)N)c3O[C@@H]3CCNC3)ncn2)c1O[C@@H]1CCNC1 [Oligomer 4] | 8 (≈ 8.54 µM) | 8 (≈ 8.54 µM) | 8 (≈ 8.54 µM) | 8 (≈ 8.54 µM) | 8 (≈ 8.54 µM) | 4 (≈ 4.27 µM) | 8 (≈ 8.54 µM) | 8 (≈ 8.54 µM) | 8 (≈ 8.54 µM) | 16 (≈ 17.1 µM) | 8 (≈ 8.54 µM) | 4 (≈ 4.27 µM) | 8 (≈ 8.54 µM) | 8 (≈ 8.54 µM) | 32 (≈ 34.2 µM) | 8 (≈ 8.54 µM) | 8 (≈ 8.54 µM) | 16 (≈ 17.1 µM) | 8 (≈ 8.54 µM) | 2 (≈ 2.13 µM) | MIC (Haemophilus influenzae; [14]): 4 µg/mL (≈ 4.27 µM); MIC (Haemophilus influenzae; [15]): 4 µg/mL (≈ 4.27 µM); MIC (Haemophilus influenzae; [16]): 8 µg/mL (≈ 8.54 µM); MIC (Haemophilus influenzae; [17]): 8 µg/mL (≈ 8.54 µM); MIC (Haemophilus influenzae; [18]): 4 µg/mL (≈ 4.27 µM); MIC (Haemophilus influenzae; [19]): 8 µg/mL (≈ 8.54 µM); MIC50 (Haemophilus influenzae; [20]): 8 µg/mL (≈ 8.54 µM); MIC90 (Haemophilus influenzae; [20]): 8 µg/mL (≈ 8.54 µM); MIC (Haemophilus influenzae; [21]): 8 µg/mL (≈ 8.54 µM); Range of MICs (Haemophilus influenzae; [20]): 2 to 32 µg/mL
3 | N=C(N)NCCCCC(=O)Nc1cc(C(F)(F)F)cc(NC(=O)c2cnc(C(=O)Nc3cc(C(F)(F)F)cc(NC(=O)CCCCNC(=N)N)c3SCCN)cn2)c1SCCN [Oligomer 5] | 16 (≈ 17.4 µM) | > 64 | > 64 | > 64 | > 64 | 16 (≈ 17.4 µM) | 64 (≈ 69.8 µM) | > 64 | > 64 | 8 (≈ 8.72 µM) | 4 (≈ 4.36 µM) | 2 (≈ 2.18 µM) | 4 (≈ 4.36 µM) | 2 (≈ 2.18 µM) | 8 (≈ 8.72 µM) | 16 (≈ 17.4 µM) | 16 (≈ 17.4 µM) | 64 (≈ 69.8 µM) | 16 (≈ 17.4 µM) | 8 (≈ 8.72 µM) | MIC (Haemophilus influenzae; [14]): 8 µg/mL (≈ 8.72 µM); MIC (Haemophilus influenzae; [15]): 16 µg/mL (≈ 17.4 µM); MIC (Haemophilus influenzae; [16]): 4 µg/mL (≈ 4.36 µM); MIC (Haemophilus influenzae; [17]): 32 µg/mL (≈ 34.9 µM); MIC (Haemophilus influenzae; [18]): 32 µg/mL (≈ 34.9 µM); MIC (Haemophilus influenzae; [19]): > 64 µg/mL; MIC50 (Haemophilus influenzae; [20]): 16 µg/mL (≈ 17.4 µM); MIC90 (Haemophilus influenzae; [20]): 128 µg/mL (≈ 140 µM); MIC (Haemophilus influenzae; [21]): 16 µg/mL (≈ 17.4 µM); Range of MICs (Haemophilus influenzae; [20]): 2 to 128 µg/mL
